What was measured:
BRG1 = target: T1, BRG1 (Homo sapiens, UniProt P51532); test: ATPase catalytic activity of BRG-1, in vitro biochemical assay using ADP-Glo; conditions: 30 nM BRG-1, 400 μM ATP, 1 hour room temperature; read-out: IP50 against BRG1
T1 construct: made in house; host or cells: High Five insect cells

[1] = test system: Uveal melanoma cell lines, 92-1 or MP41; test: 3-day growth inhibition compared with clinical PKC and MEK inhibitors (Cell-titer glow); format: cell-based; conditions: 0 to 10 μM, 3 days
[2] = test system: Uveal melanoma cell lines (92-1, MP41, MP38, MP46) and non-small cell lung cancer cells (NCIH1299); test: 3-day growth inhibition (Cell-titer glow), Example 12; format: cell-based; conditions: 0 to 10 μM, 3 days; FIG. 6
[3] = test system: PKC inhibitor (PKCi)-resistant MP41 uveal melanoma cells; test: 7-day growth inhibition assay, PKC inhibitor-resistant cells; format: cell-based
[4] = test system: uveal melanoma, hematologic cancer, prostate cancer, breast cancer, and Ewing's sarcoma cell lines; conditions: breast cancer and Ewing's sarcoma lines vs the other tested cell lines, 0 to 10 μM, FIG. 4
parental MP41 cells = test: 7-day growth inhibition assay, parental cells; conditions: parental MP41, 7-day; FIG. 10
[5] = test system: 92-1 uveal melanoma cells; test: Uveal melanoma tumor growth inhibition in vivo, subcutaneous xenograft; parameters: species or system Nude mice
[6] = Body weight and tolerability in tumor-bearing mice; format: in vivo; conditions: all treatments, once daily oral gavage, 3 weeks
[7] = test system: uveal melanoma, prostate cancer, acute leukemia and histocytic lymphoma cell lines; test: 3-day growth inhibition (Cell-titer glow), all cell lines of Example 17; format: cell-based
22RV1 = test: 3-day growth inhibition (Cell-titer glow), 22RV1; format: cell-based; conditions: Homo sapiens, 72 h; 22RV1, Prostate, 3 days; read-out: Absolute IC50
92-1 = test: 3-day growth inhibition (Cell-titer glow), 92-1; format: cell-based; conditions: 72 h; 92-1, Uveal melanoma, 3 days; read-out: Absolute IC50
EOL1 = test: 3-day growth inhibition (Cell-titer glow), EOL1; format: cell-based; conditions: Homo sapiens, 72 h; EOL1, Acute myeloid leukemia, 3 days; read-out: Absolute IC50
MEL202 = test: 3-day growth inhibition (Cell-titer glow), MEL202; format: cell-based; conditions: 72 h; MEL202, Uveal melanoma, 3 days; read-out: Absolute IC50
MP38 = test: 3-day growth inhibition (Cell-titer glow), MP38; format: cell-based; conditions: 72 h; MP38, Uveal melanoma, 3 days; read-out: Absolute IC50
MP41 = test: 3-day growth inhibition (Cell-titer glow), MP41; format: cell-based; conditions: 72 h; MP41, Uveal melanoma, 3 days; read-out: Absolute IC50
MP46 = test: 3-day growth inhibition (Cell-titer glow), MP46; format: cell-based; conditions: 72 h; MP46, Uveal melanoma, 3 days; read-out: Absolute IC50
THP1 = test: 3-day growth inhibition (Cell-titer glow), THP1; format: cell-based; conditions: Homo sapiens, THP-1, 72 h; THP1, Acute monocytic leukemia, 3 days; read-out: Absolute IC50
U937 = test: 3-day growth inhibition (Cell-titer glow), U937; format: cell-based; conditions: Homo sapiens, U-937, 72 h; U937, Histiocytic lymphoma, 3 days; read-out: Absolute IC50

T1 sequence (P51532 whole entry): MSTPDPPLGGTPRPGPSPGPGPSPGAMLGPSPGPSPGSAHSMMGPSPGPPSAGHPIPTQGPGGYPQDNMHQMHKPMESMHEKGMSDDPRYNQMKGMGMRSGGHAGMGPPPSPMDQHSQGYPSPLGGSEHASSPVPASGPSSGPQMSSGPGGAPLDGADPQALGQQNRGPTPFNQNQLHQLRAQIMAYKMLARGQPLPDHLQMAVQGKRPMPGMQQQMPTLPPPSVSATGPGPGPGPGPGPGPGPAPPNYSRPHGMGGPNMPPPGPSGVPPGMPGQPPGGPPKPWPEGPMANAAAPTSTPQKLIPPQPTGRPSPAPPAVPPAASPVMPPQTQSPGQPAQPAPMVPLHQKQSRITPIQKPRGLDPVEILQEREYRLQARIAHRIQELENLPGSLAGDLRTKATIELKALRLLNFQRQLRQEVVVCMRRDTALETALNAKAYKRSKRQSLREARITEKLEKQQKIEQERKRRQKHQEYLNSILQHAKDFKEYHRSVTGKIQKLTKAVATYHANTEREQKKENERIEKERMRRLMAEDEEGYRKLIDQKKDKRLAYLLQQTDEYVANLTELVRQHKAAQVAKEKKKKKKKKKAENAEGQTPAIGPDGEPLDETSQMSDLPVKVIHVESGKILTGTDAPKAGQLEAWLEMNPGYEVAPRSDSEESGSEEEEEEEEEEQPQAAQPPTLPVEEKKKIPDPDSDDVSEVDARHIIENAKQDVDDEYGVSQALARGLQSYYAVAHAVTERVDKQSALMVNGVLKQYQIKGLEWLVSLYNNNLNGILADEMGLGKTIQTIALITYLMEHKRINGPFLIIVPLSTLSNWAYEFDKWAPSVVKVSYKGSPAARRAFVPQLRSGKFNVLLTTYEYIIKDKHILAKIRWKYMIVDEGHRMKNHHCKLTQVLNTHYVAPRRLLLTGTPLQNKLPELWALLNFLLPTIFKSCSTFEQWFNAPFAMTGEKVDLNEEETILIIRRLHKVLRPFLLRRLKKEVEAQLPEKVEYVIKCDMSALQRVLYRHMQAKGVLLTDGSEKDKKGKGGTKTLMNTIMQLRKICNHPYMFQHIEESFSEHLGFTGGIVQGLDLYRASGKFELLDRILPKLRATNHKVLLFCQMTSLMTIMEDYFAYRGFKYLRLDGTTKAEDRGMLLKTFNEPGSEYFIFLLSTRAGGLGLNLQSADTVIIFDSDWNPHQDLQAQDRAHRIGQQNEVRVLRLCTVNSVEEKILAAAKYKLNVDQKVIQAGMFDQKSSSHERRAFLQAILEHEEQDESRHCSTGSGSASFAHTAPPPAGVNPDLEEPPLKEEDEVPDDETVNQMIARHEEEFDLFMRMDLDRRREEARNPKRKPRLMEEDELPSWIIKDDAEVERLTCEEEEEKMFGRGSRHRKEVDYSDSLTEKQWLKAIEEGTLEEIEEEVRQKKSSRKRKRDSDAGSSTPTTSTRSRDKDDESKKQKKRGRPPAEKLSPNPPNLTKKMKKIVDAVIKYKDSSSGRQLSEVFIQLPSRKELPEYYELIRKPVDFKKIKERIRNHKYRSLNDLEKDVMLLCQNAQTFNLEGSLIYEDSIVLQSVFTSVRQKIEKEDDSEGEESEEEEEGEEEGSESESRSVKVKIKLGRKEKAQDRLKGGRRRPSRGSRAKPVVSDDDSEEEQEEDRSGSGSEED

In the case of `CSOC[C@H](NC(=O)c1ccc(N)cc1)C(=O)Nc1nc(-c2cccc(-c3ccncc3)c2)cs1` [Compound A], the IC50 (BRG1) is reported as 0.0193 µM, the “growth inhibition compared with the clinical PKC (LXS196) and MEK (Selumetinib) inhibitors” value [1] is reported as “comparable growth inhibition” and the “onset of growth inhibition compared with the clinical PKC and MEK inhibitors” value [1] is reported as “faster onset of inhibition”.
In the case of `CSCC[C@H](NC(=O)c1ccn(S(C)(=O)=O)c1)C(=O)Nc1nc(-c2cccc(-c3ccncc3)c2)cs1` [Compound B], the “growth inhibition compared with the clinical PKC (LXS196) and MEK (Selumetinib) inhibitors” value [1] is reported as “more potent effects on growth inhibition”, the “onset of growth inhibition compared with the clinical PKC and MEK inhibitors” value [1] is reported as “faster onset of growth inhibition” and the growth inhibition [2] is reported as “potent growth inhibition”. For the same molecule, the growth inhibition ([3]; PKCi-resistant MP41, 7-day, FIG. 10) was “strong growth inhibition”, the “sensitivity of cell lines to BRG1/BRM inhibition” value [4] was “more sensitive” and the growth inhibition (parental MP41 cells) was “strong growth inhibition”.
For `CC1(N)CCN(c2cccnc2NC(=O)c2nc(-c3ncccc3C(F)(F)F)cnc2N)CC1` [LXS196, reference compound], the “sensitivity of PKCi-resistant cells relative to parental MP41 cells” value ([3]; 7-day, FIG. 9 and FIG. 10) was “could tolerate growth at higher concentrations”.
For `COC[C@H](NC(=O)c1ccn(S(C)(=O)=O)c1)C(=O)Nc1nc(-c2cccc(N3C[C@@H](C)O[C@@H](C)C3)n2)cs1` [N—((S)-1-((4-(6-(cis-2,6-dimethylmorpholino)pyridin-2-yl)thiazol-2-yl)amino)-3-methoxy-1-oxopropan-2-yl)-1-(methylsulfonyl)-1H-pyrrole-3-carboxamide], the “tumor response at the highest dose” value ([5]; […] once daily oral gavage) was “tumor regression”, the tumor growth inhibition ([5]; once daily oral gavage, increasing doses, 3 weeks) was “tumor growth inhibition in a dose-dependent manner” and the tolerability [6] was “well tolerated”. The IC50 ([7]; 72 h, 3 days of compound treatment, read-out: absolute IC50 values, all cell lines tested) was under 0.35 µM, the growth inhibition ([7]; 3 days, 0 to 2 μM (uveal melanoma lines) or 0 to 1 μM (other lines), FIG. 14) was “potent growth inhibition” and the IC50 (22RV1) was 0.0297 µM. The IC50 (92-1) was 0.0003 µM, the IC50 (EOL1) was 0.0755 µM and the IC50 (MEL202) was 0.0623 µM. It also gave an IC50 (MP38) of 0.0315 µM, an IC50 (MP41) of 0.0118 µM and an IC50 (MP46) of 0.113 µM. The IC50 (THP1) was 0.345 µM and the IC50 (U937) was 0.0148 µM.
